Experimental data taken from ChEMBL document CHEMBL5465560, “Selectivity Literature for EUbOPEN Chemogenomic Library” (2024).
Values belong to the compound of their own block, whether it stands above or below them.

Assays:
[1] = biological target: Casein kinase I isoform epsilon (Homo sapiens, UniProt P49674); conditions: at 10 µM
[2] = biological target: T1, Dual specificity tyrosine-phosphorylation-regulated kinase 2 (Homo sapiens) (UniProt Q92630); assay: Selectivity interaction (Kinase panel (literature)) EUB0001199aCl DYRK2; conditions: at 1 µM
T1 sequence (whole entry): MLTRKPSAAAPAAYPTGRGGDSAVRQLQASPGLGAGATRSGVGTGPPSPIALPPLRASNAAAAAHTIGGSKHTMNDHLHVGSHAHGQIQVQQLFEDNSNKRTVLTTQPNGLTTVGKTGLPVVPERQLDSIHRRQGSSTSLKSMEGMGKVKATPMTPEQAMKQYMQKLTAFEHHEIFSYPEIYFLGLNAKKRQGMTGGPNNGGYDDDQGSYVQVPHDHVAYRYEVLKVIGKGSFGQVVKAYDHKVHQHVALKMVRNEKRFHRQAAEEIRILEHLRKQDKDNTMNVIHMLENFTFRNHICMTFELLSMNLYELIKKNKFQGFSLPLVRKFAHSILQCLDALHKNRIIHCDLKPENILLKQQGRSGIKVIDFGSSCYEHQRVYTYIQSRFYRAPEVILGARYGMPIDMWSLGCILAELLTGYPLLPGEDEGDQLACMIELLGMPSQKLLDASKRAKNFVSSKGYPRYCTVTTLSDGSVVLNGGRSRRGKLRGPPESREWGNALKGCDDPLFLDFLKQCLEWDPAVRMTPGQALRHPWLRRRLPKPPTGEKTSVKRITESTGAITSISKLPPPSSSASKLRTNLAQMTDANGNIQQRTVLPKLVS

[3] = biological target: Serine/threonine-protein kinase RIO2 (Homo sapiens) (UniProt Q9BVS4); assay: Selectivity interaction (KinomeScan (DiscoverX)) EUB0001079a RIOK2; conditions: at 1 µM
Sequence of Serine/threonine-protein kinase RIO2 (Homo sapiens) (Q9BVS4 whole entry, looked up): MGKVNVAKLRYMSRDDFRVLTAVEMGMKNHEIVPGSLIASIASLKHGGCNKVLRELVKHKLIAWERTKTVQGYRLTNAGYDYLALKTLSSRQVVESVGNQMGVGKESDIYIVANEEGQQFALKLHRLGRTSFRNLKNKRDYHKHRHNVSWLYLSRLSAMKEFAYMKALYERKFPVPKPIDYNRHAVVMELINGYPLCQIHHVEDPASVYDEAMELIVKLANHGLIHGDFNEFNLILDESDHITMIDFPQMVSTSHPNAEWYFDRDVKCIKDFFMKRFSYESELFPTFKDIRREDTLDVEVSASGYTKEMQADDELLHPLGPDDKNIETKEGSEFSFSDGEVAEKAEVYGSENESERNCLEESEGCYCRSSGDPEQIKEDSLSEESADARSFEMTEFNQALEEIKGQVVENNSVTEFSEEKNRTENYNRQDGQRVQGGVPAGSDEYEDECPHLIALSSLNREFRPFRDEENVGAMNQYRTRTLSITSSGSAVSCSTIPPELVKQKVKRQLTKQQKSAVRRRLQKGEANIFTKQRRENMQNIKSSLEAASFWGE

[4] = biological target: Serine/threonine-protein kinase WNK1 (Homo sapiens) (UniProt Q9H4A3); assay: Selectivity interaction (KinomeScan (DiscoverX)) EUB0001079a WNK1; conditions: at 1 µM
Sequence of Serine/threonine-protein kinase WNK1 (Homo sapiens) (Q9H4A3 whole entry, looked up): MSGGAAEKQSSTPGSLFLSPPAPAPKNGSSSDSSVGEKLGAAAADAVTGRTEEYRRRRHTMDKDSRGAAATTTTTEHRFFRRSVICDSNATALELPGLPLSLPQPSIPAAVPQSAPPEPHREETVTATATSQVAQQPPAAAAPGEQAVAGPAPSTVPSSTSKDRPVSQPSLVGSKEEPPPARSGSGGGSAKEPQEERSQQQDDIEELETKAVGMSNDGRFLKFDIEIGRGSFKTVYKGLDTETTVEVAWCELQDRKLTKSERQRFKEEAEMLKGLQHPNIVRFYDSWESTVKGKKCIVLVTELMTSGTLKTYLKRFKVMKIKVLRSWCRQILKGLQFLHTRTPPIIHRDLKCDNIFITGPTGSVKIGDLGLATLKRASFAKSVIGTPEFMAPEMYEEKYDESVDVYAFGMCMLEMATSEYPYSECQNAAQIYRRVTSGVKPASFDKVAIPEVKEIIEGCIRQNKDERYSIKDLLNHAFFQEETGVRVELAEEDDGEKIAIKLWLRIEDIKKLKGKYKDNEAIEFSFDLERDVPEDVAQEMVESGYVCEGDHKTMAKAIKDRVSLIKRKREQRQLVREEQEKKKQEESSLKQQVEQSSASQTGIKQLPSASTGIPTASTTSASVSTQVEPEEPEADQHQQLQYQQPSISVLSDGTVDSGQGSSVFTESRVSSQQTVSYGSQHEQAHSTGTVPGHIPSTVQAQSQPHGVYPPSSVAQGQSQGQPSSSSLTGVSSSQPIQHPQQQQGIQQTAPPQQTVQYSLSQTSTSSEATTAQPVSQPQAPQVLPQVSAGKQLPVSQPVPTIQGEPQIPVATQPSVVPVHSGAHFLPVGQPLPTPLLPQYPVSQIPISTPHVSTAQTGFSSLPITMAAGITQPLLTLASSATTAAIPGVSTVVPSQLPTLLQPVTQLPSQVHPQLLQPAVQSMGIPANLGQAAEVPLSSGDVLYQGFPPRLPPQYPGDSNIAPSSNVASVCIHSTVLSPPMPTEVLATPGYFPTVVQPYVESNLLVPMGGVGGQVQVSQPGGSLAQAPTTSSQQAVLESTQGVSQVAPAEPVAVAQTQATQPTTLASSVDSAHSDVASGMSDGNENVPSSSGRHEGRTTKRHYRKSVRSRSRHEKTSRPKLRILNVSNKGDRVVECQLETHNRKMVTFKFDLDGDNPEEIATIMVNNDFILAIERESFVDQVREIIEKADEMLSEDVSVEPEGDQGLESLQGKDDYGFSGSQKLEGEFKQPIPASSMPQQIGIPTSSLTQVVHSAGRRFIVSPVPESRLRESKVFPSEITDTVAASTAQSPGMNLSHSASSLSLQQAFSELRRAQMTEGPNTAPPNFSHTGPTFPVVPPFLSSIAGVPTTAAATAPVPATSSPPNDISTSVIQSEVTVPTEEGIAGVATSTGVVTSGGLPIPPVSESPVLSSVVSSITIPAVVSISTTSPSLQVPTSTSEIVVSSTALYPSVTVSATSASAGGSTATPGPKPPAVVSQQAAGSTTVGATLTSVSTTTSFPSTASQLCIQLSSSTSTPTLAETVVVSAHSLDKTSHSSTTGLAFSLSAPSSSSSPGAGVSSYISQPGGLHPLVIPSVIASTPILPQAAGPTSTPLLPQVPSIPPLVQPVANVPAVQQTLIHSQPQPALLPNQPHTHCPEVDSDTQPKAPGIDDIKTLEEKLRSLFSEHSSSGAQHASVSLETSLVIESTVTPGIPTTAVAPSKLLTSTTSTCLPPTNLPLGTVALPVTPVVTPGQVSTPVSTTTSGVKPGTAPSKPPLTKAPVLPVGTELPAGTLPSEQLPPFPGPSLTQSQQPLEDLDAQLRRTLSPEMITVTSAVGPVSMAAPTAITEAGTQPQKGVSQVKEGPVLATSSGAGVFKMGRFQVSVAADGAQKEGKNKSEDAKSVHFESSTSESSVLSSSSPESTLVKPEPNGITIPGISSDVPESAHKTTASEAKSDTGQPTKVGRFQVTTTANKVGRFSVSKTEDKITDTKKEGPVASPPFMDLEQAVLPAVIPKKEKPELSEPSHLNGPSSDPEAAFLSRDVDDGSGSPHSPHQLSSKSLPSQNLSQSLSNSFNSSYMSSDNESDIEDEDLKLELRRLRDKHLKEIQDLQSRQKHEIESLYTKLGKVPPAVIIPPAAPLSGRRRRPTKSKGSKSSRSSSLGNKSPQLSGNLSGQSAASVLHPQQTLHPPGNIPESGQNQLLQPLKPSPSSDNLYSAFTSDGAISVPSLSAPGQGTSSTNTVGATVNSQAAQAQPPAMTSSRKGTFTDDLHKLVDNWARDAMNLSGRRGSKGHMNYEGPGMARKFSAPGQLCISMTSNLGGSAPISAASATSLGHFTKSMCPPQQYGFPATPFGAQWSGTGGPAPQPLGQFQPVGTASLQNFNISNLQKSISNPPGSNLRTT

[5] = biological target: T2, Serine/threonine-protein kinase BRSK2 (Homo sapiens) (UniProt Q8IWQ3); assay: Selectivity interaction (KinomeScan (DiscoverX)) EUB0000618a BRSK2; conditions: at 10 µM
T2 sequence (whole entry): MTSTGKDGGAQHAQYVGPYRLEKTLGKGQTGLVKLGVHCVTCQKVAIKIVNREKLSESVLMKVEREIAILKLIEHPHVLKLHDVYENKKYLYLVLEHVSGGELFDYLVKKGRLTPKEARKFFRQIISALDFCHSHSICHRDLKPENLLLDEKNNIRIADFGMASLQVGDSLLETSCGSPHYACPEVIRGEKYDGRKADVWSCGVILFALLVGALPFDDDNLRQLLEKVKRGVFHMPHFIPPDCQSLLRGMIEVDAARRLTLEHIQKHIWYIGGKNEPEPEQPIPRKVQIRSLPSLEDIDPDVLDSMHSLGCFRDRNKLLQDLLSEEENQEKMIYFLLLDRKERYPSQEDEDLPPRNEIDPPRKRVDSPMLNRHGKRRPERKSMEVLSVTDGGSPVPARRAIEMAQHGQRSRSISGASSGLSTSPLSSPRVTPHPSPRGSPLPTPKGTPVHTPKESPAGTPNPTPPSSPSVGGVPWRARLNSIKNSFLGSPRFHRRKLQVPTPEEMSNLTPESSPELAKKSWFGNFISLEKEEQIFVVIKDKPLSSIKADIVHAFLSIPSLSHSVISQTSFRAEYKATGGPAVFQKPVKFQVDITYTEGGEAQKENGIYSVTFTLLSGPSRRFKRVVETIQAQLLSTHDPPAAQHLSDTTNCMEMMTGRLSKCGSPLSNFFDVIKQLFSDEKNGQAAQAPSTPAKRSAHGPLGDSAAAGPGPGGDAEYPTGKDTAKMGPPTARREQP

[6] = biological target: T3, Serine/threonine-protein kinase ULK1 (Homo sapiens) (UniProt O75385); assay: Selectivity interaction (ActivX KiNativ screen (kinase selectivity in THP-1 cell lysates)) EUB0000639a ULK1; type: subcellular; conditions: lysate, at 0.2 µM
T3 sequence (whole entry): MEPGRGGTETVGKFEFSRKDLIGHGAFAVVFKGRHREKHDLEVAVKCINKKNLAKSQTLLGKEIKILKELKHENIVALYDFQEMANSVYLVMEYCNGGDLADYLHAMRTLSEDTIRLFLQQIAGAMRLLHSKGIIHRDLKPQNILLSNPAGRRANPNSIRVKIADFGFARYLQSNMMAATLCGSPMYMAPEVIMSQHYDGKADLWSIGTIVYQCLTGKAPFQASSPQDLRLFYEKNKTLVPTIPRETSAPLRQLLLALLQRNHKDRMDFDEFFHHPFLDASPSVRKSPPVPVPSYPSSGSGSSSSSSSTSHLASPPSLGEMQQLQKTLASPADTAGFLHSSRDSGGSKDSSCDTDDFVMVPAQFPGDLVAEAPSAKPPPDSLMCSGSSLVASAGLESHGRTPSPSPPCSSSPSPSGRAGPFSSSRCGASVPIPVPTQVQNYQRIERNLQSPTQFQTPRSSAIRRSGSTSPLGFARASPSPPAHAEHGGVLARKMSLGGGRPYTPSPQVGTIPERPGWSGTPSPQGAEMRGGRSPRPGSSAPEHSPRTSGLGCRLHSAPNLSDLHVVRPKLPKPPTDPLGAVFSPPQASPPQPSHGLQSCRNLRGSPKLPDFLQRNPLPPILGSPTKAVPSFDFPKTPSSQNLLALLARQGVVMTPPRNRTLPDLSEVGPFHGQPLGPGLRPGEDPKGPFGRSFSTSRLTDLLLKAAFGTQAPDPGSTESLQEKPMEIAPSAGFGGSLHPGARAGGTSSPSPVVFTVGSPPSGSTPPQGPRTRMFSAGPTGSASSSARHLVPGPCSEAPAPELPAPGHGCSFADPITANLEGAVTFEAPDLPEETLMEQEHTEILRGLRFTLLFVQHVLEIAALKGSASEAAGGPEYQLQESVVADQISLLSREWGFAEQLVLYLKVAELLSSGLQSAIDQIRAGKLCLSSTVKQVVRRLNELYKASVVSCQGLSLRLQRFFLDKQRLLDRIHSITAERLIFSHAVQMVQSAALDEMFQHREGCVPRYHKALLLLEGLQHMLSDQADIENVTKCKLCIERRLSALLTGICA

Sequence of Casein kinase I isoform epsilon (P49674 whole entry, looked up, canonical isoform): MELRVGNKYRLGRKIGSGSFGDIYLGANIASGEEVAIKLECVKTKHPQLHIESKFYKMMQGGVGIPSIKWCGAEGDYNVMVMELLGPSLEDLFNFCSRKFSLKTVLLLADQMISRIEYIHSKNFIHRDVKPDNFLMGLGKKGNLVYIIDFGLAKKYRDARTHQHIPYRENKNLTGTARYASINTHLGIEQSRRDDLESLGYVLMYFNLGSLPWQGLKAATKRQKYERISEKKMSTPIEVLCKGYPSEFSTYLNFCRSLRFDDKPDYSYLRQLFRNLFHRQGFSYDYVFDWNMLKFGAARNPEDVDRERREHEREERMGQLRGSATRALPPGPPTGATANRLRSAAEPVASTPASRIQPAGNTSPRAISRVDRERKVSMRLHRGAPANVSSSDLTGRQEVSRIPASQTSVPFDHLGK

% of control [1]: 100%
SMILES: CCN(CC)CCCCNc1ncc2cc(-c3cc(OC)cc(OC)c3)c(NC(=O)NC(C)(C)C)nc2n1

% of inhibition [2]: 13%
SMILES: CN1Cc2nccc(-c3cn(C)nc3-c3ccc(F)cc3)c2C1=O

SMILES: Nc1cnc(N2CCc3cc(S(=O)(=O)Nc4c(F)cc(Cl)cc4F)cc(N4CCCC4=O)c32)nc1 [TP-020n]
% of control [3]: 89% | % of control [4]: 100%

SMILES: O[C@H]1CC[C@H](Nc2ncc3nc(Nc4c(F)cc(F)cc4F)n([C@H]4CCOC4)c3n2)CC1
% of control [5]: 99%

% of inhibition [6]: -29.3%
SMILES: CC[C@@H]1[C@H](F)C(=O)N[C@@H]1COc1nccc2cc(C(N)=O)c(OC)cc12 [ZIMLOVISERTIB]
